Test results published in US11109593B2, “Isoxazolin-5-one derivative and herbicide containing same as active ingredient” (HOKKO CHEMICAL INDUSTRY CO., LTD., priority 2017, dated 2021).

Columns and labels:
Type in all cases: in vivo
Echinochloa crus-galli [1] = assay: Test Example 2: herbicidal effect test by treatment during growing period in paddy rice cultivation (seven days after seeding); conditions: 120 g/10a active ingredient, assessed 14 days after treatment, dry weight vs untreated area
How it was run: (§1)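 Seeds sown 0–1 cm deep in puddled, fertilised paddy soil with about 3 cm standing water in a glass greenhouse. Diluted emulsion dropped into the water seven days after seeding at 120 g active ingredient per 10 ares. Herbicidal rate (%) from mean dry weight vs untreated, duplicate, 14 days after treatment.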

[2] = tested on: broad leaf weeds (Lindernia pyxidaria and Monochoria vaginalis); assay: as above; conditions: 120 g/10a active ingredient, assessed 14 days after treatment, dry weight vs untreated area; for pest or weed control at 1200 g/ha: 336 h
How it was run: as §1

Scirpus juncoides [3] = assay: as above; conditions: 120 g/10a active ingredient, assessed 14 days after treatment, dry weight vs untreated area
How it was run: as §1

Echinochloa crus-galli [4] = assay: Test Example 1: herbicidal effect test by treatment of rice paddy soil (immediately after seeding); conditions: 120 g/10a active ingredient, dry weight vs untreated area, 14 days after treatment
How it was run: (§2)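 Application occurs immediately after seeding, with diluted emulsion added to paddy water (about 3 cm deep) over puddled, fertilized soil at 120 g active ingredient per 10 ares. Herbicidal rate is calculated from mean dry weight against untreated controls 14 days later.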

[5] = tested on: broad leaf weeds (Lindernia pyxidaria and Monochoria vaginalis); assay: as above; conditions: 120 g/10a active ingredient, dry weight vs untreated area, 14 days after treatment; for pest or weed control at 1200 g/ha: 336 h
How it was run: as §2

Scirpus juncoides [6] = assay: as above; conditions: 120 g/10a active ingredient, dry weight vs untreated area, 14 days after treatment
How it was run: as §2

Echinochloa crus-galli [7] = assay: Test Example 3: herbicidal effect test by treatment of dry field farming soil (one day after seeding); conditions: 120 g/10a active ingredient, evaluated 14 days after treatment
How it was run: (§3)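 Alluvial dry-field soil in pots, top 1 cm mixed with 20 seeds per weed species. One day after seeding, the water-diluted emulsion was sprayed onto the soil surface at 100 L per 10 ares (120 g active ingredient per 10 ares). Duplicate pots; herbicidal rate (%) from plant dry weight versus untreated, 14 days after treatment.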

southern crabgrass [8] = assay: as above; conditions: 120 g/10a active ingredient, evaluated 14 days after treatment
How it was run: as §3

Chenopodium album [9] = assay: as above; conditions: 120 g/10a active ingredient, evaluated 14 days after treatment
How it was run: as §3

Amaranthus viridis [10] = assay: as above; conditions: 120 g/10a active ingredient, evaluated 14 days after treatment
How it was run: as §3

Echinochloa crus-galli [11] = assay: Test Example 4: herbicidal effect test by treatment of leave and stem in dry field farming (seven days after seeding); conditions: 120 g/10a active ingredient, emulsion sprayed seven days after seeding, evaluated 14 days after treatment
How it was run: (§4)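 Weeds were seeded at 20 seeds per species into the top 1 cm of alluvial upland soil in pots, then sprayed 7 days after seeding with water-diluted emulsifiable concentrate at 100 L/10 a, giving 120 g active ingredient/10 a. Duplicate pots; herbicidal rate (%) was 14 days post-treatment, from dry weight versus untreated.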

southern crabgrass [12] = assay: as above; conditions: 120 g/10a active ingredient, emulsion sprayed seven days after seeding, evaluated 14 days after treatment
How it was run: as §4

Chenopodium album [13] = assay: as above; conditions: 120 g/10a active ingredient, emulsion sprayed seven days after seeding, evaluated 14 days after treatment
How it was run: as §4

Amaranthus viridis [14] = assay: as above; conditions: 120 g/10a active ingredient, emulsion sprayed seven days after seeding, evaluated 14 days after treatment
How it was run: as §4

Compound | Herbicidal rate (%) Echinochloa crus-galli (Echinochloa crus-galli [1]) [%] | Herbicidal rate (%) Lindernia pyxidaria ([2]; Lindernia pyxidaria) [%] | Herbicidal rate (%) Monochoria vaginalis ([2]; Monochoria vaginalis) [%] | Herbicidal rate (%) Scirpus juncoides (Scirpus juncoides [3]) [%] | Herbicidal rate (%) Echinochloa crus-galli (Echinochloa crus-galli [4]) [%] | Herbicidal rate (%) Lindernia pyxidaria ([5]; Lindernia pyxidaria) [%] | Herbicidal rate (%) Monochoria vaginalis ([5]; Monochoria vaginalis) [%] | Herbicidal rate (%) Scirpus juncoides (Scirpus juncoides [6]) [%] | herbicidal rate, Echinochloa crus-galli (Echinochloa crus-galli [7]) [%] | herbicidal rate, southern crabgrass (southern crabgrass [8]) [%] | herbicidal rate, Chenopodium album (Chenopodium album [9]) [%] | herbicidal rate, Amaranthus viridis (Amaranthus viridis [10]) [%] | herbicidal effect (herbicidal rate), Echinochloa crus-galli (Echinochloa crus-galli [11]) [%] | herbicidal effect (herbicidal rate), southern crabgrass (southern crabgrass [12]) [%] | herbicidal effect (herbicidal rate), Chenopodium album (Chenopodium album [13]) [%] | herbicidal effect (herbicidal rate), Amaranthus viridis (Amaranthus viridis [14]) [%] | also measured
Cc1c(Cc2ccccc2N(C(=O)CC(C)C)S(=O)(=O)C(F)(F)F)c(=O)on1CC(C)C [Compound 1-354] | 100 | 70 | 90 | 90 | 100 | 90 | 90 | 90 | 90 | 80 | 90 | 90 | 80 | 60 | 40 | 40 | –
CCC(C)n1oc(=O)c(Cc2ccccc2N(S(=O)(=O)CC)S(=O)(=O)C(F)(F)F)c1C (centres unmarked) [Compound 1-913] | 90 | 90 | 90 | 90 | 90 | 90 | 90 | 90 | 90 | 90 | 90 | 90 | 90 | 90 | 40 | 40 | –
CCC(C)n1oc(=O)c(Cc2ccccc2N(S(=O)(=O)C(F)(F)F)S(=O)(=O)C(F)(F)F)c1C (centres unmarked) [Compound 1-964, 1,1,1-trifluoro-N-[2-[(3-methyl-5-oxo-2-sec-butyl-isoxazol-4-yl)methyl]phenyl]-N-(trifluoromethylsulfonyl)methanesulfonamide] | – | – | – | – | – | – | – | – | – | – | – | – | – | – | – | – | pest or weed control at 1200 g/ha (Echinochloa crus-galli [1]; Echinochloa crus-galli, 336 h, read-out: herbicidal rate (%) Echinochloa crus-galli): 90%; pest or weed control at 1200 g/ha ([2]; Lindernia pyxidaria, read-out: herbicidal rate (%) Lindernia pyxidaria): 90%; pest or weed control at 1200 g/ha ([2]; Monochoria vaginalis, read-out: herbicidal rate (%) Monochoria vaginalis): 90%; pest or weed control at 1200 g/ha (Scirpus juncoides [3]; Schoenoplectiella juncoides, 336 h, read-out: herbicidal rate (%) Scirpus juncoides): 90%; pest or weed control at 1200 g/ha (Echinochloa crus-galli [4]; in Echinochloa crus-galli, 336 h, read-out: Herbicidal rate (%) Echinochloa crus-galli): 90%; pest or weed control at 1200 g/ha ([5]; Monochoria vaginalis, read-out: Herbicidal rate (%) Monochoria vaginalis): 100%; pest or weed control at 1200 g/ha ([5]; in Lindernia, Lindernia pyxidaria, read-out: Herbicidal rate (%) Lindernia pyxidaria): 100%; pest or weed control at 1200 g/ha (Scirpus juncoides [6]; in Schoenoplectiella juncoides, 336 h, read-out: Herbicidal rate (%) Scirpus juncoides): 90%; pest or weed control at 1200 g/ha (Echinochloa crus-galli [7]; Echinochloa crus-galli, 336 h, read-out: herbicidal rate, Echinochloa crus-galli): 90%; pest or weed control at 1200 g/ha (southern crabgrass [8]; Digitaria ciliaris, 336 h, read-out: herbicidal rate, southern crabgrass): 90%; pest or weed control at 1200 g/ha (Chenopodium album [9]; Chenopodium album, 336 h, read-out: herbicidal rate, Chenopodium album): 90%; pest or weed control at 1200 g/ha (Amaranthus viridis [10]; Amaranthus viridis, 336 h, read-out: herbicidal rate, Amaranthus viridis): 90%; pest or weed control at 1200 g/ha (Echinochloa crus-galli [11]; Echinochloa crus-galli, 336 h, read-out: herbicidal effect (herbicidal rate), Echinochloa crus-galli): 90%; pest or weed control at 1200 g/ha (southern crabgrass [12]; Digitaria ciliaris, 336 h, read-out: herbicidal effect (herbicidal rate), southern crabgrass): 60%; pest or weed control at 1200 g/ha (Chenopodium album [13]; Chenopodium album, 336 h, read-out: herbicidal effect (herbicidal rate), Chenopodium album): 0%; pest or weed control at 1200 g/ha (Amaranthus viridis [14]; Amaranthus viridis, 336 h, read-out: herbicidal effect (herbicidal rate), Amaranthus viridis): 40%
CCOC(=O)N(c1ccccc1Cc1c(C)n(C(C)c2ccccc2)oc1=O)S(=O)(=O)C(F)(F)F (centres unmarked) [Compound 1-626] | 90 | 90 | 90 | 90 | 90 | 90 | 90 | 90 | 90 | 90 | 90 | 90 | 90 | 90 | 40 | 40 | –
COCC(C)n1oc(=O)c(Cc2ccccc2N(C(=O)c2ccccc2)S(=O)(=O)C(F)(F)F)c1C (centres unmarked) [Compound 1-479] | 90 | 90 | 90 | 90 | 90 | 90 | 90 | 90 | 90 | 90 | 90 | 90 | 90 | 90 | 40 | 40 | –
Cc1c(Cc2ccccc2N(S(C)(=O)=O)S(=O)(=O)C(F)(F)F)c(=O)on1CC(C)C [Compound 1-892] | 90 | 80 | 80 | 90 | 100 | 90 | 90 | 90 | 90 | 90 | 80 | 90 | 50 | 40 | 40 | 40 | –
CCC(=O)N(c1ccccc1Cc1c(C)n(C(C)CC)oc1=O)S(=O)(=O)C(F)(F)F (centres unmarked) [Compound 1-316] | 90 | 90 | 90 | 90 | 90 | 90 | 90 | 90 | 90 | 90 | 90 | 90 | 90 | 90 | 40 | 40 | –
Cc1c(Cc2ccccc2N(C(=O)OC(C)C)S(=O)(=O)C(F)(F)F)c(=O)on1C(C)c1ccccc1 (centres unmarked) [Compound 1-653] | 90 | 90 | 90 | 90 | 90 | 90 | 90 | 90 | 90 | 90 | 90 | 90 | 90 | 90 | 40 | 40 | –
